This is an account of results in patent US20180338980A1, “AROMATIC SULFONAMIDE DERIVATIVES” (BAYER PHARMA AKTIENGESELLSCHAFT, priority 2015, published 2018).

Common to all, as to type: cell-based
Test [1] addresses T1, mouse P2X4 receptors (Mus musculus, UniProt Q9JJX6).
T1 construct: host or cells: HEK 293 (recombinant, constitutively expressing)
T1 sequence (Q9JJX6 1-388): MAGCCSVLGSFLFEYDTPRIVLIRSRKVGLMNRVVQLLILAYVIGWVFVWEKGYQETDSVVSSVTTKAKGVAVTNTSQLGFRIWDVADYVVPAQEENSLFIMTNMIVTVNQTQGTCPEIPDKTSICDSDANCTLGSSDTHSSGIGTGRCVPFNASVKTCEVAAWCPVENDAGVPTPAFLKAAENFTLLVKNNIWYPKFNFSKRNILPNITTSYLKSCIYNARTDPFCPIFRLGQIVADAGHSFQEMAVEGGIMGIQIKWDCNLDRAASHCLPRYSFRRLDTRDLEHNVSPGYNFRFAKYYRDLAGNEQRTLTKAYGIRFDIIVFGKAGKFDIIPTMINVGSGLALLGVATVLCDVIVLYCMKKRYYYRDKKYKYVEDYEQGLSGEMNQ
The test can be described thus: Assay B: mouse P2X4 receptor cell line, Fluo8 fluorescence FLIPR (agonist Bz-ATP at EC50). The conditions noted are these: HEK mouse P2X4 cell line, agonist Bz-ATP at EC50, average. The protocol: The identification of agonists and antagonists of the P2X4 receptor from humans and […] also the quantification of the activity of the compounds of the invention was performed by use of recombinant cell lines. […] The test cell lines constitutively express the mouse or human P2X4 receptors. Stimulation of the receptors with an agonist leads to a conformational change of P2X4 and influx of extracellular calcium ions through the ion channel. The cytoplasmatic calcium transient is detected via the calcium sensitive dye Fluo8 for the mouse P2×4 cell line or in case of the human P2×4 cell line a stably expressed calcium-sensitive photoprotein, mitochondrial photina, which, after reconstitution with the cofactor coelenterazine, emits light in dependence of calcium binding [Bovolenta S, Foti M, Lohmer S, Corazza S., J Biomol Screen. […] The strength of Fluo8 fluorescence signal or photina luminescence signal corresponds to the level of receptor activation. An inhibitor would decrease the signal depending on its potency and concentration.
On the day of the assay medium is exchanged by Fluo8 containing buffer for 30 minutes. In the fluorescence reader (FLIPR) test substances in various concentrations are added for 10 minutes. After baseline measurement the agonist Bz-ATP at EC50 concentration is applied and fluorescence is measured immediately.

For test [2], the target named is T2, P2X4 (Homo sapiens, UniProt Q99571).
T2 sequence (Q99571 1-388): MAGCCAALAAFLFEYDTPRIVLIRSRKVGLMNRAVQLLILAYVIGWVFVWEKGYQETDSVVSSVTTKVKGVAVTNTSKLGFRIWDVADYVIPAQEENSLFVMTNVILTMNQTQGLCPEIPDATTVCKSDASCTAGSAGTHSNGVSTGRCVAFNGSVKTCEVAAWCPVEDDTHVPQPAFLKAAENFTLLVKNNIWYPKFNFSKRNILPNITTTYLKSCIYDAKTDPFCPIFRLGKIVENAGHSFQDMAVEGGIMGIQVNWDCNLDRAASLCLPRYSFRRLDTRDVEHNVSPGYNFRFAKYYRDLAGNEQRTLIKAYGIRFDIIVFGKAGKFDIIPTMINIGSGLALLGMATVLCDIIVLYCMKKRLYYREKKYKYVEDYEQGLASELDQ
Nature of the test: Assay A: human P2X4 receptor cell line, FLIPR calcium assay (Fluo-8, agonist Bz-ATP at EC80). The arrangement: host or cells: HEK 293 (recombinant, constitutively expressing; with mitochondrial photina in Assay B). Conditions: HEK human P2X4 cells, Fluo-8 FLIPR; for IC50: Bz-ATP at EC80, average values; for Emax: percentage of maximal inhibition, read-out: human P2X4 Assay A avg Efficacy. The procedure, abridged: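 Antagonism read as inhibition of the calcium response to EC80 Bz-ATP, by peak-over-basal Fluo-8 fluorescence over 120 s, normalized to DMSO wells. Human P2X4-HEK cells, dye-loaded 30 min in probenecid-containing HBSS/HEPES pH 7.4, received compound 30 min beforehand at room temperature, 0.5% DMSO final. Triplicates fitted for IC50, maximal inhibition and Hill slope.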

For test [3], the target named is T2, P2X4. Nature of the test: Assay B: human P2X4 receptor cell line, mitochondrial photina luminescence (agonist Bz-ATP at EC50). Set-up: host or cells: HEK 293 (recombinant, constitutively expressing; with mitochondrial photina in Assay B). Conditions: HEK human P2X4 cell line, photina luminescence, agonist Bz-ATP at EC50, average; for Emax: read-out: human P2X4 Assay B avg Efficacy. The procedure, abridged:
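Bz-ATP at its EC50 activates human P2X4 stably expressed in a cell line that also carries the calcium-sensitive photoprotein mitochondrial photina (coelenterazine cofactor). Light emitted on calcium influx is measured straight away in a luminometer. Reduced luminescence indicates antagonism.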

In test [4] the target is T2, P2X4. The test can be described thus: Human whole blood assay (human WBA): IL-13 production after LPS priming and ATP stimulation. The arrangement: from tissue; host or cells: human whole blood of healthy female volunteers. The conditions noted are these: IL-13 in human whole blood, LPS 100 ng/ml 2 h then ATP 3 mM 1 h; total concentration. As to the method: Human whole blood assay (human WBA) was prepared from the blood of healthy female volunteers. In this assay, the efficacy of P2X4 antagonists on the production of IL-13 in whole blood after ATP stimulation (3 mM for 1 h) following priming of the cells with lipopolysacaride (LPS, 100 ng/ml for 2 h) was evaluated. After incubation, supernatant was taken following centrifugation and the formation of IL-13 was assayed using standard ELISA kits. IC50 values were calculated using GraphPad PRISM program with nonlinear regression curve fit. Data are presented as total concentration.

For the compound `NS(=O)(=O)c1cc(NC(=O)Cc2cc(F)ccc2Cl)ccc1Oc1cccc(Cl)c1` [Example 099, 2-(2-Chloro-5-fluorophenyl)-N-[4-(3-chlorophenoxy)-3-sulfamoylphenyl]acetamide], in test [1], the IC50 came to 808 nM and the “mouse P2X4 Assay B avg Efficacy” value came out at 67%. For the same compound, in test [2], the IC50 is 168 nM and the Emax was 77%. Moreover, in test [3], the IC50 is 22 nM and the Emax was determined as 55%.

With `NS(=O)(=O)c1cc(NC(=O)Cc2c(Cl)cccc2Cl)ccc1Oc1cccc(Cl)c1` [Example 104, N-[4-(3-Chlorophenoxy)-3-sulfamoylphenyl]-2-(2,6-dichlorophenyl)acetamide], in test [1], the IC50 is 604 nM and the “mouse P2X4 Assay B avg Efficacy” value was found to be 59%. Moreover, the Emax in test [2] stood at 78%. Further, the Emax in test [3] worked out at 60%.

`NS(=O)(=O)c1cc(NC(=O)Cc2ccccc2Cl)ccc1OCc1ccccc1F` [Example 137, 2-(2-Chlorophenyl)-N-{4-[(2-fluorobenzyl)oxy]-3-sulfamoylphenyl}acetamide]: in test [1], the 50% inhibitory concentration (IC50) worked out at 1750 nM and the “mouse P2X4 Assay B avg Efficacy” value is 66%. Moreover, in test [2], the IC50 stood at 35 nM and the Emax was determined as 88%. Also, in test [3], the IC50 was 33 nM and the Emax was 98%.

For the compound `N#Cc1ccc(COc2ccc(NC(=O)Cc3ccccc3Cl)cc2S(N)(=O)=O)cc1` [Example 138, 2-(2-Chlorophenyl)-N-{4-[(4-cyanobenzyl)oxy]-3-sulfamoylphenyl}acetamide], in test [1], the IC50 was 9390 nM and the “mouse P2X4 Assay B avg Efficacy” value turned out to be 41%. Moreover, in test [2], the IC50 was found to be 4 nM and the Emax turned out to be 67%. In test [3], the IC50 is 27 nM and the Emax stood at 56%.

`NS(=O)(=O)c1cc(NC(=O)Cc2ccccc2Cl)ccc1OCc1cccc(Cl)c1` [Example 139, N-{4-[(3-Chlorobenzyl)oxy]-3-sulfamoylphenyl}-2-(2-chlorophenyl)acetamide]: the IC50 in test [1] was determined as 612 nM; in test [2], 26 nM; in test [3], 43 nM. For the same compound, the “mouse P2X4 Assay B avg Efficacy” value in test [1] came out at 52%. For the same compound, the results for the Emax in test [2] and in test [3] were 82% and 63%, respectively.

For the compound `NS(=O)(=O)c1cc(NC(=O)Cc2ccccc2Cl)ccc1OCc1ccccc1` [Example 141, N-[4-(Benzyloxy)-3-sulfamoylphenyl]-2-(2-chlorophenyl)acetamide], in test [1], the IC50 was 1130 nM and the “mouse P2X4 Assay B avg Efficacy” value was found to be 66%. Further, the Emax in test [2] was found to be 96%. In test [3], the Emax stood at 69%.

`NS(=O)(=O)c1cc(NC(=O)Cc2ccc(C(F)(F)F)cc2)ccc1OCc1ccccn1` [Example 152, N-[4-(Pyridin-2-ylmethoxy)-3-sulfamoylphenyl]-2-[4-(trifluoromethyl)phenyl]acetamide]: in test [1], the IC50 is more than 50000 nM and the “mouse P2X4 Assay B avg Efficacy” value was 35%. In addition, in test [2], the IC50 was more than 25000 nM and the Emax came to 47%. Also, in test [3], the IC50 came out at 431 nM and the Emax was determined as 89%.

On to `NS(=O)(=O)c1cc(NC(=O)Cc2ccccc2Cl)ccc1OCCc1cccc(Cl)c1` [Example 156, 2-(2-Chlorophenyl)-N-{4-[2-(3-chlorophenyl)ethoxy]-3-sulfamoylphenyl}acetamide], for which, in test [1], the IC50 is more than 50000 nM and the “mouse P2X4 Assay B avg Efficacy” value was 25%. Further, in test [2], the IC50 turned out to be 12 nM and the Emax was 81%. In test [3], the IC50 was determined as 47 nM and the Emax was 58%.

Take `NS(=O)(=O)c1cc(NC(=O)Cc2ccccc2Cl)ccc1OCC1CCCC1` [Example 160, 2-(2-Chlorophenyl)-N-[4-(cyclopentylmethoxy)-3-sulfamoylphenyl]acetamide]: in test [1], the half-maximal inhibitory concentration (IC50) was 1030 nM and the “mouse P2X4 Assay B avg Efficacy” value is given as 62%. For the same compound, in test [2], the IC50 is 10 nM and the Emax amounted to 71%. Also, in test [3], the IC50 is 40 nM and the Emax worked out at 67%.

As to `NS(=O)(=O)c1cc(NC(=O)Cc2cc(F)ccc2Cl)ccc1OCC1CCOCC1` [Example 163, 2-(2-Chloro-5-fluorophenyl)-N-[3-sulfamoyl-4-(tetrahydro-2H-pyran-4-ylmethoxy)phenyl]acetamide], in test [1], the IC50 worked out at 3500 nM and the “mouse P2X4 Assay B avg Efficacy” value is on record as 65%. In test [2], the Emax stood at 68%. For the same compound, in test [3], the Emax came to 61%.

As for `CN(C)C(=O)c1cccc(CC(=O)Nc2ccc(Oc3cccc(Cl)c3)c(S(N)(=O)=O)c2)c1` [Example 202, 3-(2-{[4-(3-Chlorophenoxy)-3-sulfamoylphenyl]amino}-2-oxoethyl)-N,N-dimethylbenzamide], in test [1], the IC50 worked out at 947 nM and the “mouse P2X4 Assay B avg Efficacy” value is listed as 60%. In test [2], the IC50 stood at 121 nM and the Emax worked out at 72%. Further, in test [3], the IC50 is 278 nM and the Emax was found to be 83%.

Take `NS(=O)(=O)c1cc(NC(=O)Cc2ccccc2Cl)ccc1OC1CCOCC1` [Example 207, 2-(2-Chlorophenyl)-N-[3-sulfamoyl-4-(tetrahydro-2H-pyran-4-yloxy)phenyl]acetamide]: in test [1], the IC50 was not below 16000 nM and the “mouse P2X4 Assay B avg Efficacy” value worked out at 20%. Moreover, in test [2], the IC50 came out at 473 nM and the Emax turned out to be 60%. Further, in test [3], the half-maximal inhibitory concentration (IC50) turned out to be 100 nM and the Emax turned out to be 77%.

Take `COc1ccc(CC(=O)Nc2ccc(Oc3ccc(Cl)cc3)c(S(N)(=O)=O)c2)cc1` [Example 229, N-[4-(4-Chlorophenoxy)-3-sulfamoylphenyl]-2-(4-methoxyphenyl)acetamide]: the IC50 in test [4] amounted to 30 µM; in test [2] it was 472 nM; in test [3] it was 78 nM. Also, the Emax in test [2] came to 63%; in test [3], 56%.

Take `NS(=O)(=O)c1cc(NC(=O)Cc2ccccc2Cl)ccc1OC1CCS(=O)(=O)C1` (centres unmarked) [Example 232, 2-(2-Chlorophenyl)-N-{4-[(1,1-dioxidotetrahydrothiophen-3-yl)oxy]-3-sulfamoylphenyl}acetamide]: the IC50 in test [1] amounted to 3330 nM; in test [2], 215 nM; in test [3] it was 149 nM. In test [1], the “mouse P2X4 Assay B avg Efficacy” value stood at 61%. The Emax in test [2] came out at 57%; in test [3], 49%.
